Source: patent US8691511B2, “Hydroxylated 1,2,4-oxadiazole benzoic acid compounds, compositions thereof and their use in bioassays” (PTC Therapeutics, Inc., priority 2006, dated 2014)

Experiments:
[1] = test system: mRNA containing a UGA premature termination codon; test: biochemical in vitro translation assay, rabbit reticulocyte lysate with nonsense-containing luciferase reporter mRNA; details: in vitro translation reaction using rabbit reticulocyte lysate, internal standard
Text: (§1) Two assays were developed for use in high throughput screens to identify small molecules that promote nonsense suppression. Each assay utilized luciferase because it is a functional reporter gene assay (light is only produced if the protein is functional) and it is extremely sensitive (Light intensity is proportional to luciferase concentration in the nM range). The first assay is a cell-based luciferase reporter assay and the second is a biochemical assay consisting of rabbit reticulocyte lysate and a nonsense-containing luciferase reporter mRNA. In the cell-based assay, a luciferase reporter construct containing a UGA premature termination codon was stably transfected in 293T Human Embryonic Kidney cells. In the biochemical assay, mRNA containing a UGA premature termination codon was used as a reporter in an in vitro translation reaction using rabbit reticulocyte lysate supplemented with tRNA, hemin, creatine kinase, amino acids, KOAc, Mg(OAc)2, and creatine phosphate. […] Synthetic mRNA was prepared in vitro using the T7 promoter and the MegaScript in vitro transcription kit (Ambion).

[2] = test system: luciferase reporter construct containing a UGA premature termination codon; test: cell-based luciferase reporter assay (nonsense suppression); details: 293T Human Embryonic Kidney cells stably transfected with UGA luciferase reporter; internal standard
Text: as §1

CC(C)c1ccc(N2CC(=O)N(c3cccc(C(=O)O)c3)C2=O)cc1 [3-[3-(4-Isopropyl-phenyl)-2,5-dioxo-imidazolidin-1-yl]-benzoic acid]
luciferase activity [1]: increased luciferase activity
luciferase activity [2]: increased luciferase activity
